We go through 10 compounds from patent US20220396569A1 (Carmot Therapeutics, Inc., priority 2021, published 2022).

pEC50: −log10 of the molar value. A value given as a limit tells only on which side of the number the result lay.

This experiment deals with T1, human GLP-1 receptor (Homo sapiens, UniProt P43220).
T1 construct: expressed in transfected cells
T1 sequence (P43220 24-463): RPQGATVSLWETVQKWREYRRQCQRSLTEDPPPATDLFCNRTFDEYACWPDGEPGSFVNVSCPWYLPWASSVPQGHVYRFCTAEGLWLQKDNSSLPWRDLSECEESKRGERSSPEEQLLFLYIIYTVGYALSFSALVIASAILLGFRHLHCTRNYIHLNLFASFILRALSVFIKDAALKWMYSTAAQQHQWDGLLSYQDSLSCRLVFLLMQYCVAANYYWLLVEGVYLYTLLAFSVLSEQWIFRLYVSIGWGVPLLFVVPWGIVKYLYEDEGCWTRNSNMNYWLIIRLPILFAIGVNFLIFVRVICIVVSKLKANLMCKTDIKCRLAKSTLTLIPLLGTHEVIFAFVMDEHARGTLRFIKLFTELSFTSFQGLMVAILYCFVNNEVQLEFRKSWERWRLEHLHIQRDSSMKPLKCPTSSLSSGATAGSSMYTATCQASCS
Kind of experiment: GLP-1R cAMP Assay (HitHunter cAMP accumulation). The format is cell-based. The following applies: cAMP accumulation, CHO cells stably overexpressing human GLP-1 receptor, 30 min treatment; read-out: EC50. The method in brief: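 CHO cells stably expressing human GLP-1R, 10,000 cells/well in HBSS with 10 mM HEPES and 625 μM IBMX, were mixed with anti-cAMP antibody reagent. Compound was applied as a 20-point dose response in triplicate for 30 min. After lysis and overnight detection, luminescence was read and dose-response curves analysed.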
For `O=C(O)c1ccc2nc(CN3CC(Cc4ccnc(COc5ccc(Cl)cc5Cl)c4)C3)n(C[C@@H]3CCO3)c2c1` [Example 177, (S)-2-((3-((2-((2,4-Dichlorophenoxy)methyl)pyridin-4-yl)methyl)azetidin-1-yl)methyl)-1-(oxetan-2-ylmethyl)-1H-benzo[d]imidazole-6-carboxylic acid], the pEC50 is more than 7.30.

For the compound `O=C(O)c1ccc2nc(CN3CC(Oc4cccc(COc5ccc(Cl)cc5Cl)c4)C3)n(C[C@@H]3CCO3)c2c1` [Example 192, (S)-2-((3-(3-((2,4-Dichlorophenoxy)methyl)phenoxy)azetidin-1-yl)methyl)-1-(oxetan-2-ylmethyl)-1H-benzo[d]imidazole-6-carboxylic acid], the pEC50 was more than 7.30.

`O=C(O)c1ccc2nc(CN3CCC(c4nc(COc5ccc(Cl)cc5F)ccc4F)C3)n(C[C@@H]3CCO3)c2c1` (stereo partly drawn) [Compound 456, 2-[(3-{6-[(4-chloro-2-fluorophenoxy)methyl]-3-fluoropyridin-2-yl}pyrrolidin-1-yl)methyl]-1-{[(2S)-oxetan-2-yl]methyl}-1H-1,3-benzodiazole-6-carboxylic acid]: the pEC50 is more than 7.30.

On to `N#Cc1cc(Cl)ccc1OCc1cccc(OC2CN(Cc3nc4ccc(C(=O)O)cc4n3Cc3ncco3)C2)c1` [Compound 229, 2-[(3-{3-[(4-chloro-2-cyanophenoxy)methyl]phenoxy}azetidin-1-yl)methyl]-1-[(1,3-oxazol-2-yl)methyl]-1H-1,3-benzodiazole-6-carboxylic acid], for which the pEC50 is more than 7.30. `O=C(O)c1cc(F)c2nc(Cc3ccc(Oc4ccnc(COc5ccc(Cl)cc5F)c4)c(F)c3)n(C[C@@H]3CCO3)c2c1` [Example 471, (S)-2-(4-((2-((4-Chloro-2-fluorophenoxy)methyl)pyridin-4-yl)oxy)-3-fluorobenzyl)-4-fluoro-1-(oxetan-2-ylmethyl)-1H-benzo[d]imidazole-6-carboxylic acid]: the pEC50 is more than 7.30. For `O=C(O)c1ccc2nc(CN3CCC(c4cccc(Oc5ccccc5)c4)C3)n(C[C@@H]3CCO3)c2c1` (stereo partly drawn) [Example 119, 1-(((S)-Oxetan-2-yl)methyl)-2-((3-(3-phenoxyphenyl)pyrrolidin-1-yl)methyl)-1H-benzo[d]imidazole-6-carboxylic acid] the value was 6.30 to 7.30. As for `O=C(O)c1cc(F)c2nc(CN3CC[C@H](Oc4cccc(COc5ccc(Cl)cc5F)c4)C3)n(C[C@@H]3CCO3)c2c1` [Compound 351, 2-{[(3S)-3-{3-[(4-chloro-2-fluorophenoxy)methyl]phenoxy}pyrrolidin-1-yl]methyl}-4-fluoro-1-{[(2S)-oxetan-2-yl]methyl}-1H-1,3-benzodiazole-6-carboxylic acid], the figure is more than 7.30. As to `N#Cc1ccc(OCc2nc(C34CC3CN(Cc3nc5ccc(C(=O)O)cc5n3C[C@@H]3CCO3)C4)ccc2F)c(F)c1` (mixture of isomers) [Example 522, 2-((1-(6-((4-Cyano-2-fluorophenoxy)methyl)-5-fluoropyridin-2-yl)-3-azabicyclo[3.1.0]hexan-3-yl)methyl)-1-(((S)-oxetan-2-yl)methyl)-1H-benzo[d]imidazole-6-carboxylic acid], the pEC50 is more than 7.30. With `O=C(O)c1ccc2nc(CN3CC(Oc4cccc(COc5ccc(Cl)cc5Cl)c4)C3)n(Cc3ccno3)c2c1` [Compound 237, 2-[(3-{3-[(2,4-dichlorophenoxy)methyl]phenoxy}azetidin-1-yl)methyl]-1-[(1,2-oxazol-5-yl)methyl]-1H-1,3-benzodiazole-6-carboxylic acid], the pEC50 is more than 7.30.

On to `N#Cc1ccc(OCc2nc(C3=CCN(Cc4nc5c(F)cc(C(=O)O)cc5n4C[C@@H]4CCO4)C3)ccc2F)c(F)c1` [Compound 421, 2-[(3-{6-[(4-cyano-2-fluorophenoxy)methyl]-5-fluoropyridin-2-yl}-2,5-dihydro-1H-pyrrol-1-yl)methyl]-4-fluoro-1-{[(2S)-oxetan-2-yl]methyl}-1H-1,3-benzodiazole-6-carboxylic acid], for which the pEC50 is more than 7.30.
